We go through 1 molecule from patent US10172816B2, “Method of treating chronic obstructive pulmonary disease (CPD) with verproside” (YUNGJIN PHARMACEUTICAL CO., LTD, priority 2013, dated 2019).

Structures are written as SMILES.

One assay deals with TNF-α. Put plainly: COPD mouse model (LPS+CS): TNF-α in BALF by ELISA. Type of assay: in vivo, BALB/c mice. The following applies: 15 mg/kg, p.o. As to the method: (§1) 8 weeks aged BALB/c male mice was anaesthetized with 7% chloral hydrate and 100 μl of LPS+CS mixture {LPS (100 μg/ml)+standard cigarette extract (Cigarette smoking (CS), 4 mg/ml)=1:1} was inhaled to mice (i.t.) for three weeks once a week to prepare COPD animal model. Briefly, 100 μl of LPS+CS mixture was evenly inhaled to nose and mouth of fastened mice (i.t). […] After the end of experiment, the blood, BALF, and pneumonocyte of each mice were isolated and collected to test. The level of IL-1β, IL-6, TNF-a, IL-17, MCP-1, and GRO-a (BioSource, USA) in BALF isolated from mice was determined by enzyme-linked immuno-sorbent assay. Respective antibodies against L-1β, IL-6, TNF-a, IL-17, MCP-1, and GRO-a were diluted with a coating buffer solution (291195, R&D System, USA), coated on a microwell and left alone for overnight at 4° C. Each well was washed three times with washing buffer solution and 100 μl of 10-fold diluted serum was added thereto. […] The solution was left alone for 30 mins in shadow and added with 50 μl of stop solution (DY994, R&D system, USA) to determine the absorbance using by ELISA leader at 450 nm (340PC384, Molecular Devices, USA).

A further assay relates to IL-1β, IL-6, and TNF-α. Put plainly: COPD rat model (cigarette smoke): cytokine release in BALF by ELISA. Type of assay: in vivo, Sprague-Dawley rat. The note with it: ATC2 and Verproside 30 mg/kg, Daxas 1 mg/kg, p.o.
A further assay has as its system MMP-9 and NF-κB. Put plainly: COPD rat model: expression of proinflammatory proteins in lung tissue (Western blotting). The note with it: ATC2 and Verproside 30 mg/kg, Daxas 1 mg/kg, p.o. It counts as in vivo, Sprague-Dawley rat. In general terms: Immunoblotting shows a protein as a band on a membrane.
Assay [1] relates to KC/CXCL-1 (Chemokines Gro-α). Nature of the assay: COPD mouse model (LPS+CS): KC/CXCL-1 in BALF by ELISA. Type of assay: in vivo, BALB/c mice. The note with it: 15 mg/kg, p.o. On the procedure:
as §1
Background: ELISA stands for enzyme-linked immunosorbent assay.

Assay [2] relates to inflammatory immunocytes and neutrophils in BALF. Nature of the assay: COPD mouse model (LPS+CS, i.t.): immunocytes, neutrophils and T lymphocytes in BALF. Type of assay: in vivo, BALB/c mice. The following applies: 15 mg/kg, p.o. On the procedure: Specific pathogen-free male BALB/c mice (about 18-20 g), aged 8 weeks, which were routinely screened serologically for relevant respiratory pathogens, were purchased from ORIENT Co. (www.orient.co.kr, Seoul, Korea) and bred allowing to access freely to feed and water in breeding room controlling the temperature of 22±2° C., and humidity of 55±15% at the light-dark cycle for 12 hours and acclimated with the experimental environment for 1 week. […] 8 weeks aged BALB/c male mice was anaesthetized with 7% chloral hydrate and 100 μl of LPS+CS mixture {LPS (100 μg/ml)+standard cigarette extract (Cigarette smoking (CS), 4 mg/ml)=1:1} was inhaled to mice (i.t.) for three weeks once a week to prepare COPD animal model. Briefly, 100 μl of LPS+CS mixture was evenly inhaled to nose and mouth of fastened mice (i.t). […] After the end of experiment, the blood, BALF, and pneumonocyte of each mice were isolated and collected to test. After blood collection, 1 ml of FBS-free/DMEM medium contained in injector was injected to the trachea of autopsied mice, and the mice was fixed with string to circulate the blood three times and isolate the cell from BALF. […] The isolated PBMCs, BAL (Bronchoalveolar lavage), and pneumocyte were adjusted to 5×10^5 cells and performed to immunofluorescence staining at 4° C. PE-anti-CD3e (553064, BD Pharmingen, USA), FITC-anti-CD8 (553031, BD Pharmingen, USA), PE-anti-CD4 (553047, BD Pharmingen, USA), PE-anti-Gr-1 (553128, BD Pharmingen, USA), and FITC-anti-neutrophil (ab55453, Abcam, UK) were added thereto, respectively, and reacted for 30 mins in ice. After the reaction, the cells were washed with phosphate buffered physiological saline solution more than three times and the cell frequency (%) of CD3^+CD4^+& CD3^+CD8^+, and Gr-1^+Neutrophil^+ was determined using by Cell Quest program (643274, BD Biosciences, USA) of the flow cytometer (FACSCalibur, Becton, Dickinson, USA) and the absolute total number in each tissue was calculated by applying total cells.

Description for IL-1β, IL-6, and TNF-α: The exposure of cigarette smoke was performed by using a cigarette smoke generator (CH Technology Corp. USA). In a detail, 1 hour after the orally administration of test samples using by Head/nose-only exposure unit (TSE System, German) according to nose-only method, the cigarette smoke was exposed by inhalation for 3 days every hour. 8 puffs (volume 35 ml, duration 2 sec, interval 1 time/min) per one piece of standard cigarette was performed in the experiment. The tested groups were divided into five groups, i.e., (i) normal group with no treatment (normal control, NC), (ii) control group exposed with cigarette smoke (COPD), (iii) test sample group treated with Daxas (1 mg/kg, p.o) 1 hr prior to cigarette smoke exposure (DA), (iv) test sample group treated with ATC2 (30 mg/ml, p.o) 1 hr prior to cigarette smoke exposure (YPL), and (v) test sample group treated with Verproside (30 mg/ml, p.o) 1 hr prior to cigarette smoke exposure (Ver). After the end of experiment, the blood, BALF, and pneumonocyte of each rat were isolated and collected to test.
The level of IL-1β, IL-6, and TNF-a (R&D System, USA) in BALF isolated from the rat was determined by enzyme-linked immuno-sorbent assay (ELISA). The analysis of each cytokine was performed according to the manufacturer's manual, and the absorbance was determined at 450 nm by ELISA leader (340PC384, Molecular Devices, USA).
Description for MMP-9 and NF-κB: The exposure of cigarette smoke was performed by using a cigarette smoke generator (CH Technology Corp. USA). In a detail, 1 hour after the orally administration of test samples using by Head/nose-only exposure unit (TSE System, German) according to nose-only method, the cigarette smoke was exposed by inhalation for 3 days every hour. 8 puffs (volume 35 ml, duration 2 sec, interval 1 time/min) per one piece of standard cigarette was performed in the experiment. The tested groups were divided into five groups, i.e., (i) normal group with no treatment (normal control, NC), (ii) control group exposed with cigarette smoke (COPD), (iii) test sample group treated with Daxas (1 mg/kg, p.o) 1 hr prior to cigarette smoke exposure (DA), (iv) test sample group treated with ATC2 (30 mg/ml, p.o) 1 hr prior to cigarette smoke exposure (YPL), and (v) test sample group treated with Verproside (30 mg/ml, p.o) 1 hr prior to cigarette smoke exposure (Ver).
The protein obtained from homogenization was performed to electrophoresis at the dose of 30 μg/lane and transferred using by polyvinylidene difluoride (PVDF) membrane (IPVH00010, Millipore, USA).

Regarding `O=C(O[C@H]1[C@@H]2C=CO[C@@H](O[C@@H]3O[C@H](CO)[C@@H](O)[C@H](O)[C@H]3O)[C@@H]2[C@@]2(CO)O[C@@H]12)c1ccc(O)c(O)c1` [verproside, 6-O-(3,4-dihydroxybenzoyl) catalpol], the “reduction of TNF-α in BALF compared with control group” value in the assay with TNF-α was “more than 42.2%”. Besides, in the assay on IL-1β, IL-6, and TNF-α, the “level of cytokines (IL-1β, IL-6, TNF-α) in BALF compared with COPD induced group” value is reported as “significantly reduced level”. Further, the “expression of proinflammatory protein (MMP-9, NF-κB) in lung tissue compared with COPD induced group” value with MMP-9 and NF-κB is recorded as “significant decreased”. In addition, the “reduction of chemokine KC/CXCL-1 in BALF compared with control group” value in assay [1] is on record as “more than 57.4%”. Moreover, in assay [2], the “number of total immunocyte in BALF compared with control group” value was “sharply reduced”; the “reduction of number of neutrophils (Diff-Quik stained, cytospin) in BALF compared with control group” value is listed as “more than 94.2%”; the “reduction of total absolute cell number of CD4+ T cell in BALF compared with control group” value is reported as “more than 32.9%”; the “reduction of total absolute cell number of CD8+ T cell in BALF compared with control group” value is “not significantly different”. For the same molecule, in assay [2], the “reduction of total absolute cell number of Neutrophils+Gr-1+ cell in BALF compared with control group” value is given as “more than 93.9%”.
